Like-named read-outs stand apart in the source and are kept apart here. Peptide text beside a SMILES is read from it. Some results are limits rather than exact numbers.

For assay [1], the system named is HIV-1. The procedure: Human lysozyme (2 mg) was treated with clostripain (10 units, Sigma) in 400 μl of Tris buffer, pH7.6 at 37° C. for 24 h. The digest was resolved by reversed phase chromatography on a ProRPC column (Hr5/10). […] The fractions were assayed for anti-HIV activity by p24 production in HIV-1 infected ACH2 T lymphocytes as described in Lee-Huang et al. (1999).

Assay [2] has as its system HHV8 infected cells of AIDS patients with Kaposi's sarcoma.

Take `CC(C)[C@H](NC(=O)[C@H](Cc1c[nH]c2ccccc12)NC(=O)[C@H](C)NC(=O)[C@@H](N)CC(N)=O)C(=O)N[C@@H](C)C(=O)N[C@@H](Cc1c[nH]c2ccccc12)C(=O)N[C@@H](CCCNC(=N)N)C(=O)N[C@@H](CC(N)=O)C(=O)N[C@@H](CCCNC(=N)N)C(=O)O` [HL9 (R107→N), NAWVAWRNR] (H-NAWVAWRNR-OH): the EC50 in assay [1] (24 h) is more than 100 µM. On the same count and under the same terms, to `CC(C)[C@H](NC(=O)[C@H](Cc1c[nH]c2ccccc12)NC(=O)[C@H](C)NC(=O)[C@@H](N)CCCNC(=N)N)C(=O)N[C@@H](C)C(=O)N[C@@H](Cc1c[nH]c2ccccc12)C(=O)N[C@@H](CCCCN)C(=O)N[C@@H](CC(N)=O)C(=O)N[C@@H](CCCNC(=N)N)C(=O)O` [HL9 (R113→K), RAWVAWKNR] (H-RAWVAWKNR-OH) belongs more than 100 µM; to `CC(C)[C@H](NC(=O)[C@H](Cc1c[nH]c2ccccc12)NC(=O)[C@H](C)NC(=O)[C@@H](N)CCCNC(=N)N)C(=O)N[C@@H](C)C(=O)N[C@@H](Cc1c[nH]c2ccccc12)C(=O)N[C@@H](CCCNC(=N)N)C(=O)N[C@@H](CC(N)=O)C(=O)N[C@@H](CCCCN)C(=O)O` [HL9 (R115→K), RAWVAWRNK] (H-RAWVAWRNK-OH), more than 100 µM. In assay [2], `CC(C)[C@H](NC(=O)[C@H](Cc1c[nH]c2ccccc12)NC(=O)[C@H](C)NC(=O)[C@@H](N)CCCNC(=N)N)C(=O)N[C@@H](C)C(=O)N[C@@H](Cc1c[nH]c2ccccc12)C(=O)N[C@@H](CCCNC(=N)N)C(=O)N[C@@H](CC(N)=O)C(=O)N[C@@H](CCCNC(=N)N)C(=O)O` [HL9, RAWVAWRNR] (H-RAWVAWRNR-OH) came in with an EC50 of 0.048 µM.

On to `CC[C@H](C)[C@H](NC(=O)CNC(=O)[C@H](CCC(N)=O)NC(=O)[C@@H]1CCCN1C(=O)[C@H](CC(=O)O)NC(=O)[C@H](CCCNC(=N)N)NC(=O)[C@@H](NC(=O)[C@@H](NC(=O)[C@@H](N)CCCNC(=N)N)C(C)C)C(C)C)C(=O)N[C@@H](CCCNC(=N)N)C(=O)N[C@@H](C)C(=O)N[C@@H](Cc1c[nH]c2ccccc12)C(=O)N[C@H](C(=O)N[C@@H](C)C(=O)N[C@@H](Cc1c[nH]c2ccccc12)C(=O)N[C@@H](CCCNC(=N)N)C(=O)N[C@@H](CC(N)=O)C(=O)N[C@@H](CCCNC(=N)N)C(=O)O)C(C)C` [HL18, RVVRDPQGIRAWVAWRNR] (H-RVVRDPQGIRAWVAWRNR-OH; N-terminus and C-terminus assumed), for which the values for the EC50 in assay [2] and in assay [1] (24 h) were 0.056 µM and 0.058 µM, respectively. With “Lysozyme: Human lysozyme, whole molecule”, the EC50 was 0.054 µM in assay [2] (read-out: Anti-KS EC50, Table 4); 0.05 µM in assay [1] (read-out: Anti-HIV EC50); 0.05 µM in assay [1] (read-out: Anti-HIV activity (EC50)); 0.055 µM in assay [1] (read-out: anti-HIV EC50 (50% inhibition concentration)). Turning to RAWVAYRNR [HL9 (W112→Y)], the “Anti-HIV activity (EC50)” value in assay [1] was “No Anti-HIV”.

RAYVAWRNR [HL9 (W109→Y)]: the “Anti-HIV activity (EC50)” value in assay [1] is reported as “No Anti-HIV”.

With RVVRDPQGI [HL18-N9], in assay [1], the “Anti-HIV activity (EC50)” value is recorded as “No Anti-HIV” and the anti-HIV activity entry is “no anti-HIV activity”. Take RVVRDPQGIRAWVAYRNR [HL18 (W112-Y)]: in assay [1], the “Anti-HIV activity (EC50)” value is “No Anti-HIV”.

On to RVVRDPQGIRAYVAWRNR [HL18 (W109-Y)], for which the “Anti-HIV activity (EC50)” value in assay [1] is given as “No Anti-HIV”.

Values taken from patent publication US7838275B2, “Anti-HIV and anti-tumor peptides and fragments of lysozyme” (priority 2000, dated 2010).
